Assay [1] concerns the target T1, Programmed cell death protein 1/Programmed cell death 1 ligand 1 (Homo sapiens, UniProt Q15116+Q9NZQ7). The assay is described as follows: Inhibition of PD-1/PDL1 protein-protein interaction (unknown origin) by HTRF assay. The assay is classed as protein-complex assay. A general note: TR-FRET usually uses a lanthanide donor and a delayed reading to cut background.

Assay [2] deals with T1, Programmed cell death protein 1/Programmed cell death 1 ligand 1. The assay is described as follows: Inhibition of PD-1/PDL1 protein-protein interaction (unknown origin). The assay is classed as protein-complex assay.

As a reminder, the IC50 is the concentration that gives 50% inhibition.

Bounds are passed on as bounds.

T1 sequence (Q15116 whole entry): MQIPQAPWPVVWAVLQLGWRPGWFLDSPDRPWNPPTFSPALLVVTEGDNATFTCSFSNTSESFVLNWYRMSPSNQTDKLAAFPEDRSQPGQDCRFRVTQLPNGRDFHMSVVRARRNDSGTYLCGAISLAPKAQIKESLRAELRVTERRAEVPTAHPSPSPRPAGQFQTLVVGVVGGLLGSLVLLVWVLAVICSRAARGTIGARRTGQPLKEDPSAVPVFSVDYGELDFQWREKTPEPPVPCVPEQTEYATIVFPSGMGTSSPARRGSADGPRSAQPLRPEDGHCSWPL
T1 sequence (Q9NZQ7 whole entry): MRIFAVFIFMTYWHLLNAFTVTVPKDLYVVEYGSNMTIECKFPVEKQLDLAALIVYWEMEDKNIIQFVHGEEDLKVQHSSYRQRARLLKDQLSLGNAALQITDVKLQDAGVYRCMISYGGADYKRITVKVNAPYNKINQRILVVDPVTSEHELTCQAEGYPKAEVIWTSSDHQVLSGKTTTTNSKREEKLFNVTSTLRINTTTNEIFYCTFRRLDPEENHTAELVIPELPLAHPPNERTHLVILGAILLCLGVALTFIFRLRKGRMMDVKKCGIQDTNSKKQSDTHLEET

As for `OCCNCc1ccc2c(Nc3cccc(-c4ccccc4)c3Cl)noc2c1`, in assay [1], the IC50 is 6490 nM. That is a single-digit micromolar value.
The same measure, in the same setting: to `OCCNCc1ccc2onc(Nc3cccc(-c4ccc5c(c4)OCCO5)c3Cl)c2c1` belongs 3020 nM.
`Cc1c(NC(=O)c2cccc(CNCCO)n2)cccc1-c1ccccc1` returned an IC50 in assay [2] of at most 10 nM.
On to `O=C(O)CNCc1ccc2onc(Nc3cccc(-c4ccc5c(c4)OCCO5)c3Cl)c2c1`, for which, in assay [1], inhibition was half-maximal at 91.6 nM (IC50).
Regarding `N#Cc1cncc(COc2cc(OC3CCc4c(-c5ccccc5)cccc43)c(Cl)cc2CN[C@@H](CO)C(=O)O)c1` (stereo partly specified), in assay [2], the IC50 is under 100 nM.
For `O=C(O)C1CCN(Cc2ccc3onc(Nc4cccc(-c5ccccc5)c4Cl)c3c2)C1` (racemic), the IC50 in assay [1] came out at 452 nM.
With `CC(=O)NCCNCc1ccc2c(Nc3cccc(-c4ccccc4)c3Cl)noc2c1`, the IC50 in assay [1] worked out at 2030 nM.
In assay [2], `Cc1c(/C=C/c2c(Cl)cc(CNC(C)(CO)C(=O)O)cc2C(F)(F)F)cccc1-c1ccc2c(c1)OCCO2` (stereo unspecified) had an IC50 of 18 nM.
Molecule `O=C(O)CNCc1ccc2c(Nc3cccc(-c4ccccc4)c3Cl)noc2c1` showed an IC50 in assay [1] of 718 nM.
On the same count and under the same terms, the same measure for `CC(=O)NCCNCc1ccc2c(Nc3cccc(-c4ccc5c(c4)OCCO5)c3Cl)noc2c1`: 834 nM; for `OC1CCN(Cc2ccc3onc(Nc4cccc(-c5ccc6c(c5)OCCO6)c4Cl)c3c2)C1` (racemic): 1280 nM; for `O=C(O)C1CCN(Cc2ccc3onc(Nc4cccc(-c5ccccc5)c4Cl)c3c2)CC1`: 610 nM.
`O=C(O)[C@H](CO)NCc1ccc2c(Nc3cccc(-c4ccccc4)c3Cl)noc2c1` registered an IC50 in assay [1] of 2390 nM.
On the same count and under the same terms, to `O=C(O)[C@H](CO)NCc1ccc2onc(Nc3cccc(-c4ccc5c(c4)OCCO5)c3Cl)c2c1` belongs 51.3 nM; to `OCCNCc1ccc2c(Nc3cccc(-c4ccc5c(c4)OCCO5)c3Cl)noc2c1`, 756 nM; to `O=C(O)[C@H](CO)NCc1ccc2c(Nc3cccc(-c4ccc5c(c4)OCCO5)c3Cl)noc2c1`, 1720 nM.
For the molecule `OCCNCc1ccc2onc(Nc3cccc(-c4ccccc4)c3Cl)c2c1`, in assay [1], it took 803 nM to reach half-maximal inhibition (IC50).
Take `OC1CCN(Cc2ccc3c(Nc4cccc(-c5ccc6c(c5)OCCO6)c4Cl)noc3c2)C1` (racemic): the IC50 in assay [1] amounted to 1680 nM.
Still for that read-out and setting: the same measure for `O=C(O)CNCc1ccc2c(Nc3cccc(-c4ccc5c(c4)OCCO5)c3Cl)noc2c1`: 383 nM.
`O=C(O)C1CCCN(Cc2ccc3onc(Nc4cccc(-c5ccccc5)c4Cl)c3c2)C1` (racemic) came in with an IC50 in assay [1] of 92.8 nM.
In assay [1], `O=C(O)C1CCCN1Cc1ccc2onc(Nc3cccc(-c4ccccc4)c3Cl)c2c1` (racemic) returned an IC50 of 85.8 nM.
In assay [1], `CC(=O)NCCNCc1ccc2onc(Nc3cccc(-c4ccccc4)c3Cl)c2c1` came in with an IC50 of 193 nM.
In turn, `O=C(O)C1CN(Cc2ccc3onc(Nc4cccc(-c5ccccc5)c4Cl)c3c2)C1` gave a 50% inhibitory concentration (IC50) in assay [1] of 364 nM.
On the same count and under the same terms, to `O=C(O)CNCc1ccc2onc(Nc3cccc(-c4ccccc4)c3Cl)c2c1` belongs 30.5 nM; to `O=C(O)C1CCN1Cc1ccc2onc(Nc3cccc(-c4ccccc4)c3Cl)c2c1` (racemic), 480 nM.
For `CC(=O)NCCNCc1ccc2onc(Nc3cccc(-c4ccc5c(c4)OCCO5)c3Cl)c2c1`, the IC50 in assay [1] turned out to be 438 nM.
The same measure, in the same setting: to `O=C(O)C1CCCCN1Cc1ccc2onc(Nc3cccc(-c4ccccc4)c3Cl)c2c1` (racemic) belongs 71.2 nM; to `COC(=O)[C@H](CO)NCc1ccc2onc(Nc3cccc(-c4ccccc4)c3Cl)c2c1`, 1620 nM; to `OC1CCN(Cc2ccc3onc(Nc4cccc(-c5ccccc5)c4Cl)c3c2)C1` (racemic), 464 nM.
The same measure, in the same setting: to `O=C(O)[C@H](CO)NCc1ccc2onc(Nc3cccc(-c4ccccc4)c3Cl)c2c1` belongs 26.8 nM; to `OC1CCN(Cc2ccc3c(Nc4cccc(-c5ccccc5)c4Cl)noc3c2)C1` (racemic), 1490 nM.
